In PMC3777193, “Diaryl- and triaryl-pyrrole derivatives: inhibitors of the MDM2–p53 and MDMX–p53 protein–protein interactions” (Medchemcomm, 2013):
Like-named read-outs stand apart in the source and are kept apart here.

Key:
[1] = target: MDM2–p53 (Homo sapiens, UniProt Q00987); test: MDM2–p53 ELISA protein–protein binding assay; details: for fold loss of potency against MDM2–p53: N-alkyl malonamides compared with 10c
[2] = target: T1, MDMX–p53 (Homo sapiens, UniProt O15151); test: MDMX–p53 ELISA binding assay
T1 construct: host or cells: in vitro coupled T7 transcription and rabbit reticulocyte lysate translation
T1 sequence (O15151 1-490): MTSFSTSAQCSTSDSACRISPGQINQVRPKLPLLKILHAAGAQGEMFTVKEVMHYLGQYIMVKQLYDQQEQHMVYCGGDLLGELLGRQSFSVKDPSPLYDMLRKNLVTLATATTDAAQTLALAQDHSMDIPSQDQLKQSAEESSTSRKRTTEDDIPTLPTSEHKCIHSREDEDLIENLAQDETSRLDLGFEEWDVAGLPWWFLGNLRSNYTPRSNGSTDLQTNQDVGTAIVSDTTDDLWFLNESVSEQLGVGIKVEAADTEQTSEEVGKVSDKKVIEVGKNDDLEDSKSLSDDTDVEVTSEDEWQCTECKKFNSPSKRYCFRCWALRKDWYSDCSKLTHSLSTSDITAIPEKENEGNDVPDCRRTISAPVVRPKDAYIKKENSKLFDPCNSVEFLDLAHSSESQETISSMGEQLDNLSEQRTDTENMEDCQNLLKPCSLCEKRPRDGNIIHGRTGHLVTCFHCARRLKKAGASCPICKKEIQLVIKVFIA

[3] = test system: SJSA-1; test: Growth inhibitory activity, SJSA-1; details: Homo sapiens, SJSA-1, read-out: GI50 SJSA-1
Protocol: (§1) Growth inhibitory activity was determined for selected pyrroles in a panel of cell lines with defined MDM2, MDMX and p53 status (Table 5).

[4] = test system: SN40R2; test: Growth inhibitory activity, SN40R2; details: read-out: GI50 SN40R2
Protocol: as §1

[5] = test system: MRK-NU-1; test: Growth inhibitory activity, MRK-NU-1; details: Homo sapiens, MRK-nu-1, read-out: GI50 MRK-NU-1
Protocol: as §1

[6] = Table 3, n = 3 (b n = 5), read-out: MDM2 IC50
[7] = Table 3, n = 3 (c n = 1), read-out: MDMX IC50

Chain of MDM2–p53 (Q00987 whole entry): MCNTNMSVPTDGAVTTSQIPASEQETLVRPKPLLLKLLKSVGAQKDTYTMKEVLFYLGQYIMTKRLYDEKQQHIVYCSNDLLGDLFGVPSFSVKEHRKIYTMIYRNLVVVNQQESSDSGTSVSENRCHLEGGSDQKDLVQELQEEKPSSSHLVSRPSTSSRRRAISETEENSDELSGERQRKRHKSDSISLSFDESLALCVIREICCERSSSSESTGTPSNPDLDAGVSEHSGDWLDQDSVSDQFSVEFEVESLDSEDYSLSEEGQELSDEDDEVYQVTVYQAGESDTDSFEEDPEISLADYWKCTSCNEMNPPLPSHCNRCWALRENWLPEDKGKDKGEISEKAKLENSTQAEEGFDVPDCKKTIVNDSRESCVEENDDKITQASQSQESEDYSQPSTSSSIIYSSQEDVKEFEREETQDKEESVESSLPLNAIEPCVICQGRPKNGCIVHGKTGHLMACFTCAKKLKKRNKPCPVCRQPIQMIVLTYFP

SMILES	IC50 ([1]; read-out: MDM2 IC50)	IC50 [1, 6]	IC50 [2, 7]	IC50 ([2]; read-out: MDMX IC50)	also measured
CCN1C(=O)C(=Cc2cc(-c3ccccc3)n(-c3ccc(Cl)cc3)c2-c2ccccc2)C(=O)N(CC)C1=S [Compound 4u]	0.3 ± 0.12 µM				fold less potent against MDM2 compared with unsubstituted analogues [1]: 3–4 fold
CCN1C(=O)C(=Cc2cc(-c3ccccc3)n(-c3ccc(Br)cc3)c2-c2ccccc2)C(=O)N(CC)C1=O [Compound 4v]	0.89 ± 0.04 µM				fold less potent against MDM2 compared with unsubstituted analogues [1]: 3–4 fold; inhibition at 50 µM ([2]; read-out: MDMX % inhibition at 50 μM): 74%
CCN1C(=O)C(=Cc2cc(-c3ccccc3)n(-c3ccc(Br)cc3)c2-c2ccccc2)C(=O)N(CC)C1=S [Compound 4w]	0.26 ± 0.05 µM				
CN1C(=O)C(=Cc2cc(-c3ccccc3)n(-c3ccc(Cl)cc3)c2-c2ccccc2)C(=O)NC1=S [Compound 4x]					IC50 [1]: 0.11 ± 0.02 µM; IC50 [2]: 28 ± 23 µM; GI50 [3]: 5.5 ± 0.6 µM; GI50 [4]: 6.3 ± 0.4 µM; GI50 [5]: 7 ± 1 µM
CN1C(=O)NC(=O)C(=Cc2cc(-c3ccccc3)n(-c3ccc(Br)cc3)c2-c2ccccc2)C1=O [Compound 4y]					IC50 [1]: 0.34 ± 0.08 µM; IC50 [2]: 35 ± 20 µM
CN1C(=O)C(=Cc2cc(-c3ccccc3)n(-c3ccc(Br)cc3)c2-c2ccccc2)C(=O)NC1=S [Compound 4z]					IC50 [1]: 0.073 ± 0.002 µM
CC1(C)OC(=O)C(=Cc2cc(-c3ccccc3)n(-c3ccc(Br)cc3)c2-c2ccccc2)C(=O)O1 [Compound 7]		17 ± 4 µM			fold less potent than 8c against MDM2–p53 [1]: > 100 fold
CC1(C)OC(=O)C(Cc2cc(-c3ccccc3)n(-c3ccc(Br)cc3)c2-c2ccccc2)C(=O)O1 [Compound 9]		2.9 ± 0.7 µM			fold less potent than 8c against MDM2–p53 [1]: 20 fold
COC(=O)C(=Cc1cc(-c2ccccc2)n(-c2ccc(Cl)cc2)c1-c1ccccc1)C(=O)OC [Compound 10a]		> 50 µM	> 50 µM		activity against MDM2–p53 in words [1]: essentially inactive
O=C(O)C(=Cc1cc(-c2ccccc2)n(-c2ccc(Cl)cc2)c1-c1ccccc1)C(=O)O [Compound 10b]		2.9 ± 0.2 µM	> 50 µM		activity against MDM2–p53 in words [1]: modest activity
NC(=O)C(=Cc1cc(-c2ccccc2)n(-c2ccc(Cl)cc2)c1-c1ccccc1)C(N)=O [Compound 10c]		2.5 ± 0.2 µM	30 µM		
CNC(=O)C(=Cc1cc(-c2ccccc2)n(-c2ccc(Cl)cc2)c1-c1ccccc1)C(=O)NC [Compound 10d]		7.6 ± 0.4 µM	30 µM		fold loss of potency against MDM2–p53 [1]: 3 fold
O=C(NCCO)C(=Cc1cc(-c2ccccc2)n(-c2ccc(Cl)cc2)c1-c1ccccc1)C(=O)NCCO [Compound 10e]		15 ± 3 µM	42 µM		fold loss of potency against MDM2–p53 [1]: 6 fold
O=C(O)/C=C/c1cc(-c2ccccc2)n(-c2ccc(Cl)cc2)c1-c1ccccc1 [Compound 10f]		17 ± 3 µM	> 50 µM		activity against MDM2–p53 in words [1]: only weakly active; activity against MDMX–p53 in words [2]: inactive
CC(C)(C)c1cc(C=C2C(=O)NC(=S)NC2=O)c(-c2ccccc2)n1-c1ccc(Br)cc1 [Compound 11b]	0.76 ± 0.27 µM			963 µM	fold loss of potency for MDMX [2]: > 200 fold
CC(C)(C)c1cc(C=C2C(=O)NC(=S)NC2=O)c(-c2ccccc2)n1-c1ccc(Cl)cc1 [Compound 11c]	1.1 ± 0.7 µM			1680 µM	fold loss of potency for MDMX [2]: > 200 fold
O=C1NC(=S)NC(=O)C1=Cc1cc(-c2ccccc2)n(-c2ccc(Cl)cc2)c1C1CC1 [Compound 11d]	1.6 ± 1.7 µM			3490 µM	
O=C1NC(=S)NC(=O)C1=Cc1cc(-c2ccccc2)n(-c2ccc(Br)cc2)c1C1CC1 [Compound 11e]	1.6 ± 1.6 µM			3430 µM	
O=C1NC(=S)NC(=O)C1=Cc1cc(C2CC2)n(-c2ccc(Cl)cc2)c1-c1ccccc1 [Compound 11f]	2.1 ± 2.7 µM			4920 µM	
O=C1NC(=S)NC(=O)C1=Cc1cc(C2CC2)n(-c2ccc(Br)cc2)c1-c1ccccc1 [Compound 11g]	2.2 ± 2.7 µM			5320 µM	
